Experimental data published in US6914122B2 (priority 2000, dated 2005).

Assays:
[1] = target: Recombinant heterodimeric HCV NS3/NS4A protease (strain 1a) (Hepatitis C virus genotype 1a, UniProt P27958); assay: biochemical; parameters: species or system HCV (strain 1a)
[2] = target: T1, HCV serine protease (subtype 1b, 1bNS4A21-32GS-GS NS 3-81 I17K) in HeLa/Huh7 cells (Hepatitis C virus genotype 1b, UniProt P26663, I1043K); assay: Cell bioassay: HCV serine protease cell-based trans-cleavage assay; parameters: species or system Hepatitis C virus (subtype 1b)
T1 construct: 1bNS4A21-32GS-GS NS 3-81 I17K; expressed in transfected cells; host or cells: HeLa/Huh7 cells

Structure (SMILES)	Ki [1] [µM]	EC50 [2] [µM]
CCCC(NC(=O)[C@@H]1Cc2cccc(c2)Oc2ccc(cc2)CCC(=O)N[C@@H](C2CCCCC2)C(=O)O1)C(=O)C(=O)NCC(=O)N[C@H](C(=O)N(C)C)c1ccccc1 (stereo partly shown) [Example 35]	1.1 to 100	20
CCCC(NC(=O)C1Cc2cccc(c2)OCCCCCCC(=O)NC(C2CCCCC2)C(=O)O1)C(=O)C(=O)NCC(=O)N[C@H](C(=O)N(C)C)c1ccccc1 (stereo partly shown) [Example 36]	1.1 to 100	9
